This passage reports IC50 results from patent US9999622B2, “Pyrazolothiazole compound and medicine comprising same” (NIPPON SHINYAKU CO., LTD., priority 2014, dated 2018).

The structures appear in SMILES notation. Where a name gives a salt, the structure may show the parent alone.

Common to all, as to assay type: biochemical
One test concerns the target T1, JAK3 (Homo sapiens, UniProt P52333).
T1 construct: purchased Carna Biosciences, Inc
T1 sequence (P52333 1-1124): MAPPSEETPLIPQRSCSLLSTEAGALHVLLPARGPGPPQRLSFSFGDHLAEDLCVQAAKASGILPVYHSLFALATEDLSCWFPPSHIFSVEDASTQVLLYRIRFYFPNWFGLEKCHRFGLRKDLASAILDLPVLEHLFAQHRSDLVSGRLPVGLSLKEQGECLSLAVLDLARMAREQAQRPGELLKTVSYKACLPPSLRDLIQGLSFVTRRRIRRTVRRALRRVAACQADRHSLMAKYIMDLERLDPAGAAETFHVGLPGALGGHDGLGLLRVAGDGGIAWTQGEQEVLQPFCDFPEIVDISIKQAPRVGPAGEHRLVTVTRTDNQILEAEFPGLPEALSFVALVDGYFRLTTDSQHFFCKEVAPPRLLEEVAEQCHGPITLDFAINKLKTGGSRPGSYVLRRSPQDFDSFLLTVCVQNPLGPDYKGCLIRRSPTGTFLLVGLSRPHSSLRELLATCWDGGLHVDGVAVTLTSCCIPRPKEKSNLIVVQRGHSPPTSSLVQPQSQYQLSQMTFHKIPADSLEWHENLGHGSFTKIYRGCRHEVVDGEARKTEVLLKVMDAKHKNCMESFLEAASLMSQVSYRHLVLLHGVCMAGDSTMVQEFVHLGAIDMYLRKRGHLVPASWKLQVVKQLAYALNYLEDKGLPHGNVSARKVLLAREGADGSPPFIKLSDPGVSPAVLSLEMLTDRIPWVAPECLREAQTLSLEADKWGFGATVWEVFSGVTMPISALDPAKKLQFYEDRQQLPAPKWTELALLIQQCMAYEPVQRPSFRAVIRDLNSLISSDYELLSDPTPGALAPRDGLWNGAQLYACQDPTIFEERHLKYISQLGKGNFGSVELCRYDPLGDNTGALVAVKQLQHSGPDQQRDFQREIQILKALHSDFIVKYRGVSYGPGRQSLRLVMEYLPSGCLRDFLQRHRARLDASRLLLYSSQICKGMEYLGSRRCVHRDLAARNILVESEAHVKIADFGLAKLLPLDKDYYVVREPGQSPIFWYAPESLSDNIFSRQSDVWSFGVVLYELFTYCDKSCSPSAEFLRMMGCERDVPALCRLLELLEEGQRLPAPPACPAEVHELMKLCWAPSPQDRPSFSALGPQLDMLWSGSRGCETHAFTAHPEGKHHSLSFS
The test is described as follows: JAK tyrosine kinase inhibitory activity in the presence of 1 mM ATP (ELISA), JAK3. A digest of the protocol:
(§1)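 Kinase reactions ran on streptavidin-coated plates in 15 mM Tris-HCl pH 7.5, 0.01% Tween-20, 1 mM DTT, 30 °C for 1 h. Enzyme was prediluted to 7.5 nM (JAK1) or 0.75 nM (JAK2, JAK3) before addition. Phosphotyrosine was detected with HRP anti-pTyr antibody and TMB at A450.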
Background: An ELISA detects its analyte on a solid surface through an enzyme-linked reagent.

The target in another test is T2, JAK1 (Homo sapiens, UniProt P23458).
T2 construct: purchased Carna Biosciences, Inc
T2 sequence (P23458 whole entry): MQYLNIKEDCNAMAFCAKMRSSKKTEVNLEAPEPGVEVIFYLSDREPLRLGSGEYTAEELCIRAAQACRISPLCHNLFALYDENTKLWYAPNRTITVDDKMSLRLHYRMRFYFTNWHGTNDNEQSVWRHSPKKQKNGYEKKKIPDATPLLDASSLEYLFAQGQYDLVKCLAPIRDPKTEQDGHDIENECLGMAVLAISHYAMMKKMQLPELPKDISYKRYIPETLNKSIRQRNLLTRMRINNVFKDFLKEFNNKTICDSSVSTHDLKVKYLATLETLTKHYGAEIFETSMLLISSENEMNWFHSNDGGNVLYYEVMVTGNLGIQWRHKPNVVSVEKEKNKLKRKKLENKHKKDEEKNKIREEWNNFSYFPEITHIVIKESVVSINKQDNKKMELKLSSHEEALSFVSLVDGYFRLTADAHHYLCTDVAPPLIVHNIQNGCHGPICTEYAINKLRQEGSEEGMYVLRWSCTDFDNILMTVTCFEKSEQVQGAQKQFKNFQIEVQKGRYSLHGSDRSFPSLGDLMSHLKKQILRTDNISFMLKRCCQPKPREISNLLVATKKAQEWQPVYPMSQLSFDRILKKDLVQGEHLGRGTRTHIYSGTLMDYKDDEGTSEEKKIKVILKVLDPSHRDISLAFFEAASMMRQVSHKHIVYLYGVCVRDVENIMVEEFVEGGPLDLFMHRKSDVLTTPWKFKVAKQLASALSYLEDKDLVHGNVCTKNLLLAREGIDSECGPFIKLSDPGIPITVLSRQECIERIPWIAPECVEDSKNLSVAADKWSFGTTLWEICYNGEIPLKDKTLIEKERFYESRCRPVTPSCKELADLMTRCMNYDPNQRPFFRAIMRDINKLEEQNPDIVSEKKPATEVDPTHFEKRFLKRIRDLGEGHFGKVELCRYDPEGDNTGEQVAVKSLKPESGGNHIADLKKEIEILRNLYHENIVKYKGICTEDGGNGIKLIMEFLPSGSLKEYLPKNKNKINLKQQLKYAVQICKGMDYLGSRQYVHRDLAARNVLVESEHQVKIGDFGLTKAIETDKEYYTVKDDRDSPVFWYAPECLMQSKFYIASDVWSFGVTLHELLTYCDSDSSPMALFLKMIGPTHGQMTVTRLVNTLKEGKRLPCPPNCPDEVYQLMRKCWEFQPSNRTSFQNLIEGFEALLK
The test is described as follows: JAK tyrosine kinase inhibitory activity in the presence of 1 mM ATP (ELISA), JAK1. In outline:
as §1

The target of a further test is T3, JAK2 (Homo sapiens, UniProt O60674).
T3 construct: purchased Carna Biosciences, Inc
T3 sequence (O60674 whole entry): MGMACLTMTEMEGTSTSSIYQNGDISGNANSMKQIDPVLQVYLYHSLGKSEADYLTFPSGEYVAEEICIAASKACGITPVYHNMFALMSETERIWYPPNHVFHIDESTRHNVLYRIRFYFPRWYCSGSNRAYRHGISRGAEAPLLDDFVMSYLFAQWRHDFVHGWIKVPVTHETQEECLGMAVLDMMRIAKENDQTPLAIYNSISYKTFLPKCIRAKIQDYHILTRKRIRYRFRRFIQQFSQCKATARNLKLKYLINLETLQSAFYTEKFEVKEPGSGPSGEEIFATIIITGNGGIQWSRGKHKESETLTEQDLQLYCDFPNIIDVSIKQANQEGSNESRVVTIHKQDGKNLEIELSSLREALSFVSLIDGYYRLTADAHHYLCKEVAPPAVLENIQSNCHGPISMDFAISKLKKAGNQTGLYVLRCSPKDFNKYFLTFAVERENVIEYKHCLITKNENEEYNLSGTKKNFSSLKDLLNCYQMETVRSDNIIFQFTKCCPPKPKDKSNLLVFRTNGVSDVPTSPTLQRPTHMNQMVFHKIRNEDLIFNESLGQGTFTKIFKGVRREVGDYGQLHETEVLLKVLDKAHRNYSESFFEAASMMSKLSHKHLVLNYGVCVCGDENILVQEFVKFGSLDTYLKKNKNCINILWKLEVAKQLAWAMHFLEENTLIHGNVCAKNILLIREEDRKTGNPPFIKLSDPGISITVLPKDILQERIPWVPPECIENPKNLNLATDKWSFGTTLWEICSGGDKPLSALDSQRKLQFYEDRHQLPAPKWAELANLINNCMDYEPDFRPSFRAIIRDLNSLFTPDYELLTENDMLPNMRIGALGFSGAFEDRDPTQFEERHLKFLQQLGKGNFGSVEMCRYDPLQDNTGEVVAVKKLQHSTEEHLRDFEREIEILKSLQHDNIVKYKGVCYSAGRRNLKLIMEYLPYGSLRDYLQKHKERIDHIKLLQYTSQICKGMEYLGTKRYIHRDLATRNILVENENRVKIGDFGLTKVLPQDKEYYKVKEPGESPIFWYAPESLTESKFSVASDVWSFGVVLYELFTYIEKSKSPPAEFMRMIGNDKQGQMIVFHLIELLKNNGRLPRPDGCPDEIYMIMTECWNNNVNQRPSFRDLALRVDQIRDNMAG
The test is described as follows: JAK tyrosine kinase inhibitory activity in the presence of 1 mM ATP (ELISA), JAK2. In outline: as §1

On to `CC(C)(C)OC(=O)N1CCC(Nc2cc(C(=O)N3CCC(NC(=O)C4CC4)CC3)nc(-c3cnn4ccsc34)n2)CC1` [Example 171, Tert-butyl 4-[6-4-[(cyclopropanecarbonyl)amino]piperidine-1-carbonyl-2-(pyrazolo[5,1-b][1,3]thiazol-7-yl)pyrimidin-4-yl]aminopiperidine-1-carboxylate], for which the IC50 at JAK3 was greater than 10000 nM; on JAK1 it was 850 nM; on JAK2 it was greater than 10000 nM.
As for `O=C(NC1CCN(C(=O)c2cc(NC3CCOCC3)nc(-c3cnn4ccsc34)n2)CC1)C1CC1` [Example 172, N-(1-6-[(oxan-4-yl)amino]-2-(pyrazolo[5,1-b][1,3]thiazol-7-yl)pyrimidine-4-carbonylpiperidin-4-yl)cyclopropanecarboxamide], the half-inhibitory concentration (IC50) is greater than 10000 nM on JAK3, 320 nM on JAK1 and greater than 10000 nM at JAK2.
Regarding `O=C(NC1CCN(C(=O)c2cc(NC3COC3)nc(-c3cnn4ccsc34)n2)CC1)C1CC1` [Example 173, N-(1-6-[(oxetan-3-yl)amino]-2-(pyrazolo[5,1-b][1,3]thiazol-7-yl)pyrimidine-4-carbonylpiperidin-4-yl)cyclopropanecarboxamide], the IC50 on JAK3 was greater than 10000 nM; at JAK1, 3400 nM; on JAK2, greater than 10000 nM.
With `COC(=O)NC1CCN(C(=O)c2cc(NCC(C)(C)CC3CC3)nc(-c3cnn4ccsc34)n2)CC1` [Example 174, Methyl (1-6-[(3-cyclopropyl-2,2-dimethylpropyl)amino]-2-(pyrazolo[5,1-b][1,3]thiazol-7-yl)pyrimidine-4-carbonylpiperidin-4-yl)carbamate], the 50% inhibitory concentration (IC50) was 5600 nM at JAK3, 300 nM at JAK1 and greater than 10000 nM on JAK2.
The like results for `COC(=O)NC1CCN(C(=O)c2cc(NCC3CCN(S(C)(=O)=O)CC3)nc(-c3cnn4ccsc34)n2)CC1` [Example 175, Methyl 1-[6-([1-(methanesulfonyl)piperidin-4-yl]methylamino)-2-(pyrazolo[5,1-b][1,3]thiazol-7-yl)pyrimidine-4-carbonyl]piperidin 4-ylcarbamate] were, in that order, greater than 10000 nM, 96 nM and greater than 10000 nM.
For `O=C(NC1CCN(C(=O)c2cc(NC3CC4CCC3C4)nc(-c3cnn4ccsc34)n2)CC1)C1CC1` [Example 176, N-1-[6-[(1R)-bicyclo[2.2.1]heptan-2-yl]amino-2-(pyrazolo[5,1-b][1,3]thiazol-7-yl)pyrimidine-4-carbonyl]piperidin-4-ylcyclopropanecarboxamide] the same measures were 4600 nM, 78 nM and 4400 nM.
As for `COC(=O)NC1CCN(C(=O)c2cc(N[C@H]3CC[C@@H](O)CC3)nc(-c3cnn4ccsc34)n2)CC1` [Example 177, Methyl (1-6-[(cis-4-hydroxycyclohexyl)amino]-2-(pyrazolo[5,1-b][1,3]thiazol-7-yl)pyrimidine-4-carbonylpiperidin-4-yl)carbamate], the IC50 at JAK3 is greater than 10000 nM; at JAK1, 300 nM; at JAK2, greater than 10000 nM.
For the compound `COC(=O)NC1CCN(C(=O)c2cc(N[C@H]3CC[C@H](O)CC3)nc(-c3cnn4ccsc34)n2)CC1` [Example 178, Methyl (1-6-[(trans-4-hydroxycyclohexyl)amino]-2-(pyrazolo[5,1-b][1,3]thiazol-7-yl)pyrimidine-4-carbonylpiperidin-4-yl)carbamate], the IC50 is 9500 nM at JAK3, 510 nM on JAK1 and greater than 10000 nM at JAK2.
`COC(=O)NC1CCN(C(=O)c2cc(NC3CCCC3)nc(-c3cnn4ccsc34)n2)CC1` [Example 179, Methyl 1-[6-(cyclopentylamino)-2-(pyrazolo[5,1-b][1,3]thiazol-7-yl)pyrimidine-4-carbonyl]piperidin-4-ylcarbamate]: the IC50 was greater than 10000 nM on JAK3, 320 nM at JAK1 and greater than 10000 nM at JAK2.
In the case of `COC(=O)NC1CCN(C(=O)c2cc(NC3CCCCC3)nc(-c3cnn4ccsc34)n2)CC1` [Example 180, Methyl 1-[6-(cyclohexylamino)-2-(pyrazolo[5,1-b][1,3]thiazol-7-yl)pyrimidine-4-carbonyl]piperidin-4-ylcarbamate], the concentration for half-maximal inhibition (IC50) at JAK3 was greater than 10000 nM; on JAK1, 560 nM; at JAK2 it was greater than 10000 nM.
Take `O=C(NC1CCN(C(=O)c2cc(NC3CCNCC3)nc(-c3cnn4ccsc34)n2)CC1)C1CC1` [Example 181, N-(1-6-[(piperidin-4-yl)amino]-2-(pyrazolo[5,1-b][1,3]thiazol-7-yl)pyrimidine-4-carbonylpiperidin-4-yl)cyclopropanecarboxamide dihydrochloride]: the IC50 on JAK3 was greater than 10000 nM; on JAK1, 860 nM; at JAK2, greater than 10000 nM.
Take `C[C@@H](Nc1cc(C(=O)N2CCC(NC(=O)C3CCCCC3)CC2)nc(-c2cnn3ccsc23)n1)C(C)(C)C` [Example 182, N-1-[6-[(2R)-3,3-dimethylbutan-2-yl]amino-2-(pyrazolo[5,1-b][1,3]thiazol-7-yl)pyrimidine-4-carbonyl]piperidin-4-ylcyclohexanecarboxamide]: the IC50 on JAK3 was 1700 nM; at JAK1, 88 nM; on JAK2 it was 5400 nM.
With `C[C@@H](Nc1cc(C(=O)N2CCC(NC(=O)c3ccccc3)CC2)nc(-c2cnn3ccsc23)n1)C(C)(C)C` [Example 183, N-1-[6-[(2R)-3,3-dimethylbutan-2-yl]amino-2-(pyrazolo[5,1-b][1,3]thiazol-7-yl)pyrimidine-4-carbonyl]piperidin-4-ylbenzamide], the IC50 at JAK3 is 1200 nM; at JAK1, 87 nM; on JAK2 it was greater than 10000 nM.
Regarding `Cc1ccccc1C(=O)NC1CCN(C(=O)c2cc(N[C@@H](C)C3CC3)nc(-c3cnn4ccsc34)n2)CC1` [Example 184, N-1-[6-[(1S)-1-cyclopropylethyl]amino-2-(pyrazolo[5,1-b][1,3]thiazol-7-yl)pyrimidine-4-carbonyl]piperidin-4-yl-2-methylbenzamide], the IC50 on JAK3 was 470 nM; on JAK1, 62 nM; on JAK2, greater than 10000 nM.
The like results for `C[C@H](Nc1cc(C(=O)N2CCC(NC(=O)c3ccccn3)CC2)nc(-c2cnn3ccsc23)n1)C1CC1` [Example 185, N-1-[6-[(1S)-1-cyclopropylethyl]amino-2-(pyrazolo[5,1-b][1,3]thiazol 7 yl)pyrimidine-4-carbonyl]piperidin-4-ylpyridine-2-carboxamide] were, in that order, 810 nM, 190 nM and greater than 10000 nM.
The like results for `COc1ccccc1C(=O)NC1CCN(C(=O)c2cc(N[C@@H](C)C3CC3)nc(-c3cnn4ccsc34)n2)CC1` [Example 186, N-1-[6-[(1S)-1-cyclopropylethyl]amino-2-(pyrazolo[5,1-b][1,3]thiazol-7-yl)pyrimidine-4-carbonyl]piperidin-4-yl-2-methoxybenzamide] were, in that order, 580 nM, 81 nM and greater than 10000 nM.
In the case of `C[C@H](Nc1cc(C(=O)N2CCC(NC(=O)c3ccncc3)CC2)nc(-c2cnn3ccsc23)n1)C1CC1` [Example 187, N-1-[6-[(1S)-1-cyclopropylethyl]amino-2-(pyrazolo[5,1-b][1,3]thiazol-7-yl)pyrimidine-4-carbonyl]piperidin-4-ylpyridine-4-carboxamide], the 50% inhibitory concentration (IC50) at JAK3 turned out to be 1800 nM; at JAK1, 68 nM; on JAK2, 2100 nM.

One may read the IC50 as the concentration that inhibits the measured activity by half.
